pIC50: −log10 of the molar value.
How the values were obtained:
Assay type in all cases: cell-based
[1] = tested on: human HTT mRNA, SNP rs362331 T allele, GM04022 fibroblasts; test: Screening of HD molecules in GM04022 fibroblasts, allele-specific HTT mRNA by RT-PCR, T allele; settings: for GM04022 Emin 48 hr T Allele: Emin = lowest % HTT observed within compound concentration 0.5 nM to 1000 nM; for pIC50: Homo sapiens, Fibroblast, 48-hour incubation, T allele HTT mRNA normalized to GAPDH, relative to vehicle
Procedure: (§1) Molecular Biology Toolkit: • qPCR primer probe sets: • RNA input normalization was assessed utilizing human glyceraldehyde 3-phosphate dehydrogenase (hGAPDH) TaqMan assay (ThermoFisher cat #4351370) or Human Cyclophillin ([…]) TaqMan assay (ThermoFisher cat #4351372) • Total HTT detection was assessed utilizing human Htt TaqMan assay (ThermoFisher cat #4331182) • Allele-specific detection of human HTT expression in HD cells containing the SNP rs362331C/T (Exon 50): for each assay, allele-specific probes to detect the SNP variant contained locked nucleic acid bases to improve allele discrimination, as compared to unmodified DNA probes.
(§2) • qPCR was performed using Agpath ID one-step reverse transcriptase polymerase chain reaction (RT-PCR) reagent
(§3) Screening of HD molecules methods: GM09197 and/or GM04022 fibroblasts were cultured in T175 flasks incubated at 37° C. and 5% CO2. Once confluency was reached, the media was removed, the cells were washed with 1×PBS, and cells were dissociated using TrypLE™ Express Enzyme. Media was added to the enzyme and collected into a 15-mL conical tube and centrifuged at 500×g for 5 minutes to pellet the cells. Media and enzyme were aspirated using a serological pipette. Cells were resuspended in fresh media and counted using a Countess 3 Automated Cell Counter. Cells were plated at a density of 15,000 cells/well in a tissue culture-treated polystyrene 96-well dish and incubated at 37° C. and 5% CO2 overnight. The next day, media was removed using an 8-channel aspirator. 200 μL media/well are added back into the plate. The molecules are formulated to 1 mM and are dispensed using a Multidrop™ Pico 8 Digital Dispenser. After a 48-hour incubation with compounds, media was removed from plates, cells were washed with 1×PBS, and cells were lysed in 40 μL per well guanidinium thiocyanate buffer. RNA was isolated and purified in […] glass fiber column plates using chaotropic salts. Human mtHTT, wtHTT, and GAPDH mRNA were measured via RT-PCR using the ThermoFisher QuantStudio™ 7 Flex System in 384-well format. Results of HTT levels were normalized to GAPDH mRNA levels. Normalized HTT mRNA levels were expressed relative to vehicle-treated samples to assess fold change after molecule treatment.
(§4) Emin for each compound is the lowest % HTT concentration observed within a compound concentration of 0.5 nM to 1000 nM.

[2] = tested on: human HTT mRNA, SNP rs362331 T allele, GM09197 fibroblasts; test: Screening of HD molecules in GM09197 fibroblasts, allele-specific HTT mRNA by RT-PCR, T allele; settings: for Gm09197 Emin 48 hr T Allele (%): Emin = lowest % HTT observed within compound concentration 0.5 nM to 1000 nM; for pIC50: Homo sapiens, Fibroblast, 48-hour incubation, T allele HTT mRNA normalized to GAPDH, relative to vehicle
Procedure: as §1, §2, §3, §4

[3] = tested on: human HTT mRNA, SNP rs362331 C allele, GM04022 fibroblasts; test: Screening of HD molecules in GM04022 fibroblasts, allele-specific HTT mRNA by RT-PCR, C allele; settings: Emin = lowest % HTT observed within compound concentration 0.5 nM to 1000 nM
Procedure: as §1, §2
as §3, with “Results of HTT levels were normalized to GAPDH mRNA levels. Normalized HTT mRNA levels were expressed relative to vehicle-treated samples to assess fold change after molecule treatment.” left out

[4] = tested on: human HTT mRNA, SNP rs362331 C allele, GM09197 fibroblasts; test: Screening of HD molecules in GM09197 fibroblasts, allele-specific HTT mRNA by RT-PCR, C allele; settings: 48 hr, C allele, Emin = lowest % HTT observed within compound concentration 0.5 nM to 1000 nM
Procedure: as §1, §2, §3, §4

| Compound | GM04022 Emin 48 hr T Allele [1] | Gm09197 Emin 48 hr T Allele (%) [2] | GM 04022Emin 48 hr C Allele [3] | GM 09197 E min 48 Hr C Allele (%) [4] | pIC50 [1] | pIC50 [2] |
| --- | --- | --- | --- | --- | --- | --- |
| Cn1cc(NC(=O)c2nc(NC(=O)CCNC(=O)c3cc(NC(=O)c4nccn4C)cn3C)cn2C)cc1C(=O)NCCCC(=O)Nc1cn(C)c(C(=O)NCCC(=O)Nc2cc(C(=O)Nc3cn(C)c(C(=O)NCCC(=O)NCCOCCOCCOCCOCCOCCOCCOCCOCCOCCOCCOCCOCCOCCOCCOCCOc4ccc(NC(=O)c5cc6c(-c7cc(S(C)(=O)=O)ccc7Oc7ccc(F)cc7F)cn(C)c(=O)c6[nH]5)cc4)n3)n(C)c2)n1 [Compound A-2] | C (C<80%) | C (C<80%) | A (A>90%) | A (A>90%) |  |  |
| CCNC(=O)c1cc2c(-c3cc(S(C)(=O)=O)ccc3Oc3ccc(OCCOCCOCCOCCOCCOCCOCCOCCOCCNC(=O)CCNC(=O)c4nc(NC(=O)c5cc(NC(=O)CCNC(=O)c6nc(NC(=O)CCCNC(=O)c7cc(NC(=O)c8nc(NC(=O)CCNC(=O)c9cc(NC(=O)c%10nccn%10C)cn9C)cn8C)cn7C)cn6C)cn5C)cn4C)cc3F)cn(C)c(=O)c2[nH]1 [Compound A-3] | C (C<80%) | C (C<80%) | A (A>90%) | A (A>90%) | 7.44 | 7.41 |
| CCS(=O)(=O)Nc1ccc(Oc2ccc(F)cc2F)c(-c2cn(C)c(=O)c3[nH]c(C(=O)Nc4ccc(OCCOCCOCCOCCOCCOCCOCCOCCOCCNC(=O)CCNC(=O)c5nc(NC(=O)c6cc(NC(=O)CCNC(=O)c7nc(NC(=O)CCCNC(=O)c8cc(NC(=O)c9nc(NC(=O)CCNC(=O)c%10cc(NC(=O)c%11nccn%11C)cn%10C)cn9C)cn8C)cn7C)cn6C)cn5C)cc4)cc23)c1 [Compound A-5] | C (C<80%) | C (C<80%) | A (A>90%) | A (A>90%) | 8.70 | 8.01 |
| Cc1noc(C)c1-c1ccc2c(c1)nc(CCc1ccc(OCCOCCOCCOCCOCCOCCOCCOCCOCCOCCOCCOCCOCCOCCOCCOCCNC(=O)CCNC(=O)c3nc(NC(=O)c4cc(NC(=O)CCNC(=O)c5nc(NC(=O)CCCNC(=O)c6cc(NC(=O)c7nc(NC(=O)CCNC(=O)c8cc(NC(=O)c9nccn9C)cn8C)cn7C)cn6C)cn5C)cn4C)cn3C)c(Cl)c1)n2C[C@H](C)N1CCOCC1 [Compound A-54] |  | B (B is 90% to 80%) |  | B (B is 90% to 80%) |  |  |
| CCNC(=O)c1cc2c(-c3cc(S(C)(=O)=O)ccc3Oc3ccc(OCCOCCOCCOCCOCCNC(=O)CCNC(=O)c4nc(NC(=O)c5cc(NC(=O)CCNC(=O)c6nc(NC(=O)CCCNC(=O)c7cc(NC(=O)c8nc(NC(=O)CCNC(=O)c9cc(NC(=O)c%10nccn%10C)cn9C)cn8C)cn7C)cn6C)cn5C)cn4C)cc3F)cn(C)c(=O)c2[nH]1 [Compound A-55] |  | A (A>90%) |  | A (A>90%) |  |  |
| CC(=O)N1c2ccc(-c3ccn(CCOCCOCCOCCOCCOCCOCCOCCOCCOCCOCCOCCOCCOCCOCCOCCNC(=O)CCNC(=O)c4nc(NC(=O)c5cc(NC(=O)CCNC(=O)c6nc(NC(=O)CCCNC(=O)c7cc(NC(=O)c8nc(NC(=O)CCNC(=O)c9cc(NC(=O)c%10nccn%10C)cn9C)cn8C)cn7C)cn6C)cn5C)cn4C)n3)cc2[C@H](Nc2ccc(C#N)cc2)C[C@@H]1C [Compound A-56] |  | C (C<80%) |  | C (C<80%) |  |  |
| CC(=O)N1c2ccc(-c3ccn(-c4ccc(OCCOCCOCCOCCOCCOCCOCCOCCOCCOCCOCCOCCOCCOCCOCCOCCNC(=O)CCNC(=O)c5nc(NC(=O)c6cc(NC(=O)CCNC(=O)c7nc(NC(=O)CCCNC(=O)c8cc(NC(=O)c9nc(NC(=O)CCNC(=O)c%10cc(NC(=O)c%11nccn%11C)cn%10C)cn9C)cn8C)cn7C)cn6C)cn5C)cc4)n3)cc2[C@H](Nc2ccc(C#N)cc2)C[C@@H]1C [Compound A-58] |  | B (B is 90% to 80%) |  | B (B is 90% to 80%) |  |  |
| CC(=O)N1c2ccc(-c3ccn(-c4ccc(OCCOCCOCCOCCOCCOCCOCCOCCOCCNC(=O)CCNC(=O)c5nc(NC(=O)c6cc(NC(=O)CCNC(=O)c7nc(NC(=O)CCCNC(=O)c8cc(NC(=O)c9nc(NC(=O)CCNC(=O)c%10cc(NC(=O)c%11nccn%11C)cn%10C)cn9C)cn8C)cn7C)cn6C)cn5C)cc4)n3)cc2[C@H](Nc2ccc(C#N)cc2)C[C@@H]1C [Compound A-59] |  | B (B is 90% to 80%) |  | B (B is 90% to 80%) |  |  |
| CCNS(=O)(=O)c1ccc(Oc2ccc(OCCOCCOCCOCCOCCOCCOCCOCCOCCOCCOCCOCCOCCOCCOCCOCCNC(=O)CCNC(=O)c3nc(NC(=O)c4cc(NC(=O)CCNC(=O)c5nc(NC(=O)CCCNC(=O)c6cc(NC(=O)c7nc(NC(=O)CCNC(=O)c8cc(NC(=O)c9nccn9C)cn8C)cn7C)cn6C)cn5C)cn4C)cn3C)cc2F)c(-c2cn(C)c(=O)c3[nH]ccc23)c1 [Compound A-68] |  | C (C<80%) |  | A (A>90%) |  |  |
| CCS(=O)(=O)Nc1ccc(Oc2ccc(F)cc2F)c(-c2cn(C)c(=O)c3[nH]c(C(=O)Nc4ccc(OCCOCCOCCOCCOCCOCCOCCOCCOCCOCCOCCOCCOCCOCCOCCOCCNC(=O)CCNC(=O)c5nc(NC(=O)c6cc(NC(=O)CCNC(=O)c7nc(NC(=O)OCCNC(=O)c8cc(NC(=O)c9nc(NC(=O)CCNC(=O)c%10cc(NC(=O)c%11nccn%11C)cn%10C)cn9C)cn8C)cn7C)cn6C)cn5C)cc4)cc23)c1 [Compound A-72] |  | A (A>90%) |  | B (B is 90% to 80%) |  |  |
| Cc1sc2c(c1C)C(c1ccc(Cl)cc1)=N[C@@H](CC(=O)Nc1ccc(OCCOCCOCCOCCOCCOCCOCCOCCOCCOCCOCCOCCOCCOCCOCCOCCNC(=O)CCNC(=O)c3nc(NC(=O)c4cc(NC(=O)CCNC(=O)c5nc(NC(=O)OCCNC(=O)c6cc(NC(=O)c7nc(NC(=O)CCNC(=O)c8cc(NC(=O)c9nccn9C)cn8C)cn7C)cn6C)cn5C)cn4C)cn3C)cc1)c1nnc(C)n1-2 [Compound A-73] |  | A (A>90%) |  | A (A>90%) |  |  |
| CCS(=O)(=O)Nc1ccc(Oc2ccc(F)cc2F)c(-c2cn(C)c(=O)c3[nH]c(C(=O)Nc4ccc(OCCOCCOCCOCCOCCOCCOCCOCCOCCOCCOCCOCCOCCOCCOCCOCCNC(=O)CCNC(=O)c5nc(NC(=O)c6cc(NC(=O)CCNC(=O)c7nc(NC(=O)NCCNC(=O)c8cc(NC(=O)c9nc(NC(=O)CCNC(=O)c%10cc(NC(=O)c%11nccn%11C)cn%10C)cn9C)cn8C)cn7C)cn6C)cn5C)cc4)cc23)c1 [Compound A-74] |  | A (A>90%) |  | B (B is 90% to 80%) |  |  |
| Cc1sc2c(c1C)C(c1ccc(Cl)cc1)=N[C@@H](CC(=O)Nc1ccc(OCCOCCOCCOCCOCCOCCOCCOCCOCCOCCOCCOCCOCCOCCOCCOCCNC(=O)CCNC(=O)c3nc(NC(=O)c4cc(NC(=O)CCNC(=O)c5nc(NC(=O)NCCNC(=O)c6cc(NC(=O)c7nc(NC(=O)CCNC(=O)c8cc(NC(=O)c9nccn9C)cn8C)cn7C)cn6C)cn5C)cn4C)cn3C)cc1)c1nnc(C)n1-2 [Compound A-75] |  | A (A>90%) |  | A (A>90%) |  |  |

— patent publication US20240042046A1, “METHODS AND COMPOUNDS FOR MODULATING HUNTINGTON'S DISEASE” (Design Therapeutics, Inc., priority 2022, published 2024)
